{
  "source": "BindingDB's records for doi:10.1016/j.chembiol.2011.01.012",
  "about": "(University of Luxembourg, 2011)",
  "key": {"[1]": {"target": "Tyrosine-protein kinase JAK1 (Homo sapiens, UniProt P23458)", "sequence (P23458 whole entry)": "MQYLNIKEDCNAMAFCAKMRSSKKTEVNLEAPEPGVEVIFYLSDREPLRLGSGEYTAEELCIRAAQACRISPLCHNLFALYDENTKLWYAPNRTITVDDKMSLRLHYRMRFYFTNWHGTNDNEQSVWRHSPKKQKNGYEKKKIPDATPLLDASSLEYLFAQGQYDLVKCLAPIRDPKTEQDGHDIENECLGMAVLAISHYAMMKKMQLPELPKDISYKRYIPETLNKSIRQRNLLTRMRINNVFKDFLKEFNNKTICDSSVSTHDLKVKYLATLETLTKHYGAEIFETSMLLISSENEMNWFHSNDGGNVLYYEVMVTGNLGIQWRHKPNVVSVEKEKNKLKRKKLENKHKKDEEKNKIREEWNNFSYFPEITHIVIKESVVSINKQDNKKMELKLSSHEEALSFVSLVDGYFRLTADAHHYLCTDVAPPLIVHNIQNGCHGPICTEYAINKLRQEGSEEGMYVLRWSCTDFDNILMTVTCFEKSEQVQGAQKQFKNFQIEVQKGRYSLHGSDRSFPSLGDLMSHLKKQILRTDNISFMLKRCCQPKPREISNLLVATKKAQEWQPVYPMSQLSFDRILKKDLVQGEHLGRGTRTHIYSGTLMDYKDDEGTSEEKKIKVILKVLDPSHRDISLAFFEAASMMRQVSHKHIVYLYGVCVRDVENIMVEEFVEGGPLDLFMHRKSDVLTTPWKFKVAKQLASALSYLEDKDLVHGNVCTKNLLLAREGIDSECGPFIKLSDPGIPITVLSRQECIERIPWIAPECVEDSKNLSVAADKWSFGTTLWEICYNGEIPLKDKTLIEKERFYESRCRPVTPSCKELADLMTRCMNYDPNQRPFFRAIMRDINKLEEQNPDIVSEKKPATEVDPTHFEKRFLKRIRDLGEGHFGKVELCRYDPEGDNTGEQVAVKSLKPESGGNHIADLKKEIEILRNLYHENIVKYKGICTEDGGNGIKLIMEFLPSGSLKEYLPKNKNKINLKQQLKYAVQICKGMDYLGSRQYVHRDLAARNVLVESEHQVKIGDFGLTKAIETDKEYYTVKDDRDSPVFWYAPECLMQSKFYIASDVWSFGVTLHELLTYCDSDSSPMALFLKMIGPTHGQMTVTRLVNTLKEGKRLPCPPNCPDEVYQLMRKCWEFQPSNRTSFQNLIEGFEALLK", "assay": "Enzyme Assay", "details": "pH 7.5; 30 °C"}, "[2]": {"target": "Non-receptor tyrosine-protein kinase TYK2 (Homo sapiens, UniProt P29597)", "sequence (P29597 whole entry)": "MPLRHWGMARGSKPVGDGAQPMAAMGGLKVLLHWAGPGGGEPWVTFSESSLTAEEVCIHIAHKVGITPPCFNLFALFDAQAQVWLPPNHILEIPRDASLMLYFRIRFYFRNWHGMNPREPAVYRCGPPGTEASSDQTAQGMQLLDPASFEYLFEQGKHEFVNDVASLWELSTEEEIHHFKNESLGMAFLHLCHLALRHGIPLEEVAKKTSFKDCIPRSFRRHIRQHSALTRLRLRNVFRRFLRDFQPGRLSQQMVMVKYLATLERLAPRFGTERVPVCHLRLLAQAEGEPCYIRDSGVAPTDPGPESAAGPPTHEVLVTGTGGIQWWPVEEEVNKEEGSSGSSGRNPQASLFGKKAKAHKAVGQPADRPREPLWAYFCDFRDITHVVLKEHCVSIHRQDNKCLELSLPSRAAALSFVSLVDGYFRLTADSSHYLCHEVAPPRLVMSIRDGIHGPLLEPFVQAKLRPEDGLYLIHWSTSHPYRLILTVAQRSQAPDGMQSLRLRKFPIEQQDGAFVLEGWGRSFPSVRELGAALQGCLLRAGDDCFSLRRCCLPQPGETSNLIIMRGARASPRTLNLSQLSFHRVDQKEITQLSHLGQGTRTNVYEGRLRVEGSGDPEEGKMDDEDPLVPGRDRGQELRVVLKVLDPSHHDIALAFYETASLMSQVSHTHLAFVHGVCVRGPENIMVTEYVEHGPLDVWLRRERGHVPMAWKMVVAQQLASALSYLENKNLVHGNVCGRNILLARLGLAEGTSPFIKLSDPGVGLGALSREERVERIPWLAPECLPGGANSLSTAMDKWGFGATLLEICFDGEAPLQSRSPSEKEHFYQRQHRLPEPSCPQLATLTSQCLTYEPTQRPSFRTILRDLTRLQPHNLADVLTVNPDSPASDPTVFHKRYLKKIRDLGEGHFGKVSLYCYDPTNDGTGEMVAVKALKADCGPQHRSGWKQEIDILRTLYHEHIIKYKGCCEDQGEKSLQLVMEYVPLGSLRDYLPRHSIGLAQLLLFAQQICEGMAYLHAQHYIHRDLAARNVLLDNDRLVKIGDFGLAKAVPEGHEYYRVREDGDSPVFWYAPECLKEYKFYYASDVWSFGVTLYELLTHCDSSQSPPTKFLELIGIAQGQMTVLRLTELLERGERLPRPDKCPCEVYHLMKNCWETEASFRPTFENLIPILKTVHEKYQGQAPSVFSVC", "assay": "Enzyme Assay", "details": "pH 7.5; 30 °C"}},
  "data": [
    {"smiles": "CC(C)(O)C(=O)N1CCN(c2ccc(C(F)(F)F)c(C3=C(c4c[nH]c5ccccc45)C(=O)NC3=O)c2)CC1", "note": "[NIBR3049]", "values": [
      {"measurement": "IC50", "setting": "[1]", "value": 1.02, "unit": "µM"},
      {"measurement": "IC50", "setting": "[2]", "value": 8.05, "unit": "µM"}
    ]}
  ]
}
